In paper PMC10319809, “Chronic UCN2 treatment desensitizes CRHR2 and improves insulin sensitivity” (Nature Communications, 2023):
Several values for one entry are separate records, joined by “and”; a condition that tells them apart may be missing. Identical values can stand only once. Where no end group is shown, it is not given here.

Key:
mice = experiment: Antisauvagine-30 pre-treatment, oGTT with UCN2; format: in vivo, mouse
Experimental: For glucose tolerance tests (GTTs), animals were fasted for 8 h with ad libitum access to water. Fasting glucose measurements were taken before 300ug/kg IP dose of ASG30 (Tocris Biosciences, Bristol, UK, Catalog No: 2071) or an equivalent volume of sterile distilled water. 10 min later animals received a 1 mg/kg IP dose of UCN2 or an equivalent volume of saline co-dosed with 300ug/kg of ASG30 or an equivalent volume of water. 20 min later animals received a […] oral glucose dose. Blood glucose measurements were taken via tail nick using the AlphaTRAK 2 Glucose Monitoring System (Zoetis, Parsippany-Troy Hills, NJ) at 10, 30, 60, and 120 min after dose.
(§1) Blood Glucose (mg/dL) +Veh +Veh
(§2) Supplementary Fig. 1. Antisauvagine-30 Blunts Effects of UCN2 on Glucose Uptake.
(§3) (A) Blood glucose during oGTT. Oral glucose gavage occurred at t = 0. At t = -30 animals were
(§4) treated with either Antisauvagine-30 (ASG30) or water. At t = -20 animals were treated with
(§5) either Saline, UCN2 alone, ASG30 alone, or ASG30 and UCN2 together. Mean±SD, n = 6.
(§6) Significance was assessed by one-way ANOVA and Tukey HSD.
(§7) (B) [3H]2-Deoxyglucose uptake by the soleus muscle in insulin-treated or untreated mice, following
(§8) pre-treatment of saline, UCN2, or ASG30 and UCN2. Mean±SD, n = 6.
(§9) Significance was assessed by one-way ANOVA and Tukey HSD. * P < 0.05, ** P < 0.01, *** P < […]

soleus muscle = experiment: Antisauvagine-30 pre-treatment, [3H]2DG uptake in soleus muscle; format: in vivo, mouse; conditions: ASG30 300 ug/kg IP pre-treatment, UCN2 1 mg/kg, insulin 0.75 IU/kg
Experimental: To determine 2-deoxy-glucose (2DG) uptake in soleus muscle, mice were fasted for 5 h and anaesthetized with isoflurane. Animals were injected IP with 300 ug/kg of ASG30 or an equivalent volume of water. […] 15 min following 2DG administration, blood was collected via intracardiac stick and soleus and gastrocnemius muscles were dissected and snap frozen in liquid nitrogen. Samples were stored at −80 C until processing. Blood was treated with BaOH2 and ZnSO4 and after centrifugation, radioactivity was determined via liquid scintillation counting (Tri-Carb 5110TR, PerkinElmer, Waltham, MA). Tissue was homogenized and mixed with water or BaOH2 and ZnSO4 to determine total and unphosphorylated 2DG content.
as §1, §2, §3, §4, §5, §6, §7, §8, §9

[1] = system: CRHR2-expressing HEK293 cells; experiment: FAM-UCN2 internalization, fluorescence and live cell imaging of HEK293 cells; format: cell-based, human; conditions: HEK293 cells with or without CRHR2, over 24 h
mouse soleus muscle = experiment: Ex vivo soleus muscle [3H]2-deoxyglucose uptake; conditions: individual muscles
Experimental: Soleus muscle was removed from fed animals anesthetized by an intraperitoneal injection of pentobarbital (10 mg/100 g body weight). Dissected soleus muscles were suspended at 5 mN of tension in incubation chambers (Model 610/820 M, Danish Myo-Technology, Denmark) containing Krebs-Ringer-Buffer supplemented with 0.1% BSA, 2 mM pyruvate and 8 mM Mannitol. During the entire incubation period the KRB was maintained at 30 °C and oxygenated with 95% O2 and 5% CO2. Following 10 min of pre-incubation muscles were incubated in Krebs buffer +/− 100 nM (−7.0 log[M]) UCN2. At the next time point, 30 min later, muscles were placed in baths containing Krebs buffer +/− 100 nM (−7.0 [M]) UCN2. At the next time point, 15 min later, muscles were placed in baths containing Krebs buffer +/− 100 nM (−7.0 log[M]) UCN2 + /− 60 nM Insulin (Actrapid, Novo Nordisk, Bagsvaerd, Denmark) for 15 min. For the ex vivo glucose uptake studies, 1 mM [^3H]2-deoxyglucose (Perkin-Elmer) and 7 mM [^14C]mannitol (Perkin-Elmer) was also added at this time. Muscles that were in saline in the first bath, saline in the second bath, and saline in the third bath were assigned to the SSS group. Muscles that were in saline in the first bath, saline in the second bath, and UCN2 in the third bath were assigned to the SSU group. Muscles that were in UCN2 in the first bath, saline in the second bath, and UCN2 in the third bath were assigned to the USU group. Muscles that were in saline in the first bath, UCN2 in the second bath, and UCN2 in the third bath were assigned to the SUU group. Following incubation, muscles were harvested, washed in ice-cold KRB and immediately frozen in liquid nitrogen.
Glucose uptake was determined in muscle protein lysates by assessing the accumulation of [^3H]2-deoxyglucose with the use of [^14C]mannitol to correct for the extracellular space. Radioactivity was measured by liquid scintillation counting.

[2] = target: T1, unmodified CRHR2a (corticotropin-releasing hormone receptor 2, alpha isoform) (human) (UniProt Q13324)
T1 sequence: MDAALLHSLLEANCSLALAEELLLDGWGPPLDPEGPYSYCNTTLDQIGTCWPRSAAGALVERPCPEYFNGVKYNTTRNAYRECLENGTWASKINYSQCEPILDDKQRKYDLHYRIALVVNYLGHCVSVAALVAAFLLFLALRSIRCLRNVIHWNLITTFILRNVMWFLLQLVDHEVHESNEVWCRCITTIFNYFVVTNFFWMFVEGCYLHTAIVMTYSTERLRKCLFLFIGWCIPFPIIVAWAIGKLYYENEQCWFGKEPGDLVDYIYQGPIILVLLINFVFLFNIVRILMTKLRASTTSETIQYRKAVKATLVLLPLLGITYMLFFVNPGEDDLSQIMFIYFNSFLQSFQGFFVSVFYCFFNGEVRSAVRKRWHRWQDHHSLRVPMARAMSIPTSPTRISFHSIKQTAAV

Antisauvagine-30 [ASG30]
glucose tolerance in UCN2-treated animals during oGTT (mice; ASG30 300ug/kg IP pre-treatment): improved glucose tolerance
effect on UCN2-induced blood glucose (mice; ASG30 300ug/kg IP pre-treatment and co-dose with 1 mg/kg UCN2): significantly blunted UCN2’s effects on blood glucose
insulin-mediated glucose uptake in soleus muscle in vivo (soleus muscle): restored insulin-mediated glucose uptake

FAM-UCN2: Fluorescently labeled UCN2 (IVLSLDVPIGLLQILLEQARARAAREQATTNARILARVGHC; ends and bridges not checked; also: FAM label, position not given here)
internalization of the labeled ligand [1]: internalized in a receptor-dependent manner

Insulin
2DG Uptake (mouse soleus muscle; Fig 6C, Vehicle +Insulin): 2.36 µmol/g/h and 3.79 µmol/g/h and 4.38 µmol/g/h and 3.22 µmol/g/h and 3.39 µmol/g/h
2DG Uptake (mouse soleus muscle; Fig 6D, Insulin-SSS): 3.619 µmol/g/h and 3.768 µmol/g/h and 3.935 µmol/g/h

IVLSLDVPIGLLQILLEQARARAAREQATTNARILARVGHC (ligand) [Urocortin 2 (UCN2)]
Gs activation, ebBRET biosensor (Gas-RlucII leaving the plasma membrane), HEK293 cells with increasing UCN2; EC50 of UCN2 [2]: 0.1 nM
β-Arrestin 1 recruitment, ebBRET effector membrane translocation assay, HEK293 cells with increasing UCN2; EC50 of UCN2 [2]: 6.5 nM
β-Arrestin 2 recruitment, ebBRET effector membrane translocation assay, HEK293 cells with increasing UCN2; EC50 of UCN2 [2]: 6.1 nM
